Test results published in patent publication US8710064B2, “2-aryl-4-quinazolinones and their pharmaceutical compositions” (China Medical University, priority 2011, dated 2014).

What was measured:
HT29-5FUR cells = assay: MTT cell viability assay, HT29-5FUR cells; assay type: cell-based, human; settings: 25, 50, 100 and 200 nM for 24 and 48 hours
Method: HT29-5FUR cell line (human colon adenocarcinoma) provided by Dr. Jai-Sing Yang (China Medical University, Taiwan) was cultured in RPMI-1640 medium (Invitrogen, Carlsbad, Calif., USA) supplemented with 10% fetal bovine serum, 2 mM L-glutamine, 100 U/ml penicillin, and 100 μg/ml streptomycin.
Cells (1×10^4 cells/well) in 96-well plates were exposed to test MJ-66, and 0.1% DMSO in media served as a vehicle control. After 24 and 48 hr-incubations, […] MTT (0.5 mg/mL) solution was added to each well, the plate was incubated at 37° C. for 4 hours. Then, […] 0.04 N HCl in isopropanol was added and the absorbance at 570 nm was measured for each well. The cell survival rate was expressed as % of control. All results were performed from three independent experiments.
The growth inhibition effects of MJ-66 on HT29-5FUR cells were investigated. For cell viability assay, HT29-5FUR cells were cultured and treated with 0, 25, 50, 100 and 200 nM MJ-66 and the percentages of viable cells were detected by MTT assay described in “General materials and methods”.

C6 rat glioma = assay: MTS cell viability assay, C6 glioma cells; assay type: cell-based; settings: 48 hours, mean±SEM, n=3
Method: (§1) The human glioma cell lines U87, U251, T98G, U373, and rat glioma cell line RT2 provided by Dr. Michael Hsiao (Genomics Research Center, Academia Sinica, Taiwan) were cultured in Dulbecco's Modified Eagle medium (DMEM) (Caisson) supplemented with 10% fetal bovine serum (FBS) (Sigma-Aldrich), 2 mM L-glutamine (Caisson), 100 U/ml penicillin, and 100 μg/ml streptomycin (Caisson). The rat glioma C6 cell line provided by Dr. Shun-Fen Tzeng (National Cheng Kung University, Taiwan) was cultured in DMEM/F12 (Caisson) supplemented with 10% fetal bovine serum, 2 mM L-glutamine, 100 U/ml penicillin, and 100 μg/ml streptomycin. The human normal glia cell line SVGP12, kindly provided by Dr. Michael Hsiao, was cultured in Minimum Essential Medium (MEM) (Invitrogen) supplemented with 10% fetal bovine serum, 2 mM L-glutamine, 100 U/ml penicillin, and […]. Primary glia cells were prepared by surgery. Cerebral cortices without meninges were dissected from postnatal (P0-P2) Sprague-Dawley (SD, NCKU Laboratory Animal Center) rats and dissociated in 0.05% trypsin-EDTA (Biowest) at 37° C. for 10 min. Culture medium was added and pipetted for several times, and supernatant was removed after a centrifugation at 1,000 rpm for 5 minutes. […]
(§2) Cell proliferation was determined by MTS (tetrazolium compound, 3-(4,5-dimethylthiazol-2-yl)-5-(3-carboxymethoxyphenyl)-2-(4-sulfophenyl)-2H-tetrazolium) assay (Promega). […] The absorbance of soluble formazan was measured at 490 nm with microplate reader (Molecular device). The cell viability was determined by the percentage of the absorption relative to untreated control. […]
(§3) To investigate the effect of 2-aryl-4-quinazolinone in accordance with the present invention on cell proliferation, glioma cell lines were treated with MJ-66, MJ-68, or MJ-78. […] The cell viability of each group was analyzed by MTS assay (mean±SEM, n=3).

[1] = test system: U87 human glioma cell lines; assay: MTS cell viability assay, U87 glioma cells; assay type: cell-based; settings: 48 hours, mean±SEM, n=3
Method: as §1, §2, §3

U87 glioma cells = assay: trypan blue exclusion cell death assay, U87 glioma cells; assay type: cell-based, human; settings: 60 nM, at the 48th hour, p<0.05 versus control
Method: Cell viability was also determined by trypan-blue exclusion assay. Cells were seeded in 6-well plates (2×10^4/well) for trypan blue exclusion assay, and incubated for 24 hours at 37° C. Culture medium containing test compound or DMSO (0.006%) was added to each well, and cells were incubated at 37° C. At indicated time points (0, 24, 48, 72 and 96 hr), cells were suspended with 0.05% trypsin-EDTA, and stained with trypan-blue dye (0.4%) (Sigma). The cell viability was evaluated by the percentage of death relative to the total cell, and cell growth curve was determined by number of live cells relative to the total number of cells.
To investigate the glioma cell death induced by MJ-66, cell viability was assessed by trypan blue exclusion assay. C6 and U87 glioma cells treated with MJ-66 (30, 60, 90 nM) or DMSO (0.009%) for 0, 24, 48, 72 and 96 hours (hr) were observed under bright field microscope (FIG. 4A). The percentages of cell death and cell growth curve were determined by trypan blue assay followed by cell counting (mean±SEM, n=3). Relative to total cell number, trypan blue positive cells were defined as dead cells.

Which “cell number of HT29-5FUR relative to control” value (HT29-5FUR cells) does the source give for `O=c1[nH]c(-c2cccc3ccccc23)nc2ccc(N3CCCC3)cc12` [Compound 23, 6-(Pyrrolidin-1-yl)-2-(naphthalen-1-yl)quinazolin-4-one] here?
The value was “dose-dependent decreases”.

And the IC50 (C6 rat glioma)?
Its IC50 is 56 ± 9 nM.

What about the IC50 [1] of the same compound?
The IC50 was 54 ± 10 nM.

What about the “percentage of dead cells, U87” value (U87 glioma cells) of the same compound?
The value was “significantly induced”.
